According to patent US20190085024A1, “Alpha-Ketoamide Inhibitors Of Cysteine Proteases” (Phelix Therapeutics, priority 2017, published 2019):

Key:
Cathepsin L = Cathepsin L (Homo sapiens, UniProt P07711); assay: Cathepsin L enzyme assay; format: biochemical; conditions: Ki by Morrison equation; pH 5.5, substrate Z-Phe-Arg-Amc; read-out: Cat L
Excerpt: Two wells contained DMSO only for controls.
Velocity was converted to μM/sec.

Calpain = Calpain enzyme assay; format: biochemical; conditions: Ki by Morrison equation; pH 7.5, 5 mM CaCl2

Chain of Cathepsin L (P07711 114-333, species assumed): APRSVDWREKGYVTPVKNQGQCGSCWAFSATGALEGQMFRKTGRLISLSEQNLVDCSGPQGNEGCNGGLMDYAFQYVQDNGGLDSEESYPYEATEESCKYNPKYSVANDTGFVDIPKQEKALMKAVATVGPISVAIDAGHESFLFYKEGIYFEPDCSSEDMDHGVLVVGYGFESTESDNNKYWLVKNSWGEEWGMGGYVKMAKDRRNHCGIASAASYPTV

Compound	Ki (Cathepsin L)	Ki (Calpain)
CC[C@H](C)C(NC(=O)[C@H](CC(C)C)NC(=O)OCc1ccccc1)C(=O)C(=O)NCC(=O)N[C@H](Cc1ccc2ccccc2c1)C(N)=O (stereo partly shown) [PHELIX304, benzyl (1-((1-((2-((1-amino-3-(naphthalen-2-yl)-1-oxopropan-2-yl)amino)-2-oxoethyl)amino)-4-methyl-1,2-dioxohexan-3-yl)amino)-4-methyl-1-oxopentan-2-yl)carbamate]	0.0006 µM	0.00824 µM
CCC(C)C(C(=O)C(=O)NCC(=O)NC(Cc1ccc2ccccc2c1)C(N)=O)N(C)C(=O)C(CC(C)C)NC(=O)OCc1ccccc1 (stereo not shown) [PHELIX305, benzyl (1-((1-((2-((1-amino-3-(naphthalen-2-yl)-1-oxopropan-2-yl)amino)-2-oxoethyl)amino)-4-methyl-1,2-dioxohexan-3-yl)(methyl)amino)-4-methyl-1-oxopentan-2-yl)carbamate]	0.912 µM	9.45 µM
CCC(C)C(C(=O)C(=O)NCC(=O)NC(Cc1ccc2ccccc2c1)C(N)=O)N(C)C(=O)C(CC(C)C)NC(=O)OCc1ccccc1 (stereo not shown) [PHELIX306, benzyl (1-((1-((2-((1-amino-3-(naphthalen-2-yl)-1-oxopropan-2-yl)amino)-2-oxoethyl)amino)-4-methyl-1,2-dioxohexan-3-yl)(methyl)amino)-4-methyl-1-oxopentan-2-yl)carbamate]	0.0776 µM	0.447 µM
CCC(C)C(NC(=O)C(Cc1c[nH]cn1)NC(=O)Cc1ccccc1)C(=O)C(=O)NCC(=O)NC(Cc1ccc2ccccc2c1)C(N)=O (stereo not shown) [PHELIX308, 3-(3-(1H-imidazol-4-yl)-2-(2-phenylacetamido)propanamido)-N-(2-((1-amino-3-(naphthalen-2-yl)-1-oxopropan-2-yl)amino)-2-oxoethyl)-4-methyl-2-oxohexanamide]	0.956 µM	1.51 µM
CCC(C)C(NC(=O)C(Cc1c[nH]cn1)NC(=O)OCc1ccccc1)C(=O)C(=O)NCC(=O)NC(Cc1ccc2ccccc2c1)C(N)=O (stereo not shown) [PHELIX311, benzyl (1-((1-((2-((1-amino-3-(naphthalen-2-yl)-1-oxopropan-2-yl)amino)-2-oxoethyl)amino)-4-methyl-1,2-dioxohexan-3-yl)amino)-3-(1H-imidazol-4-yl)-1-oxopropan-2-yl)carbamate]	0.106 µM	0.309 µM
CCC(C)C(NC(=O)C(CC(C)C)NC(=O)Cc1cccnc1)C(=O)C(=O)NCC(=O)NC(Cc1ccc2ccccc2c1)C(N)=O (stereo not shown) [PHELIX312, N-(2-((1-amino-3-(naphthalen-2-yl)-1-oxopropan-2-yl)amino)-2-oxoethyl)-4-methyl-3-(4-methyl-2-(2-(pyridin-3-yl)acetamido)pentanamido)-2-oxohexanamide]	0.00265 µM	0.00081 µM
CCC(C)C(NC(=O)C(CC(C)C)NC(=O)CN1CCN(C)CC1)C(=O)C(=O)NCC(=O)NC(Cc1ccc2ccccc2c1)C(N)=O (stereo not shown) [PHELIX313, N-(2-((1-amino-3-(naphthalen-2-yl)-1-oxopropan-2-yl)amino)-2-oxoethyl)-4-methyl-3-(4-methyl-2-(2-(4-methylpiperazin-1-yl)acetamido)pentanamido)-2-oxohexanamide]	< 0.0001 µM	0.00991 µM
CCC(C)C(NC(=O)C(CC(C)C)NC(=O)OCc1ccccc1)C(=O)C(=O)NC(CC(N)=O)C(=O)NC(Cc1ccc2ccccc2c1)C(N)=O (stereo not shown) [PHELIX316, benzyl (1-((1-((4-amino-1-((1-amino-3-(naphthalen-2-yl)-1-oxopropan-2-yl)amino)-1,4-dioxobutan-2-yl)amino)-4-methyl-1,2-dioxohexan-3-yl)amino)-4-methyl-1-oxopentan-2-yl)carbamate]	0.00333 µM	0.00801 µM
CCC(C)C(NC(=O)C(CC(C)C)NC(=O)OCc1ccccc1)C(=O)C(=O)NC(CCC(N)=O)C(=O)NC(Cc1ccc2ccccc2c1)C(N)=O (stereo not shown) [PHELIX317, benzyl (1-((1-((5-amino-1-((1-amino-3-(naphthalen-2-yl)-1-oxopropan-2-yl)amino)-1,5-dioxopentan-2-yl)amino)-4-methyl-1,2-dioxohexan-3-yl)amino)-4-methyl-1-oxopentan-2-yl)carbamate]	0.00137 µM	0.0198 µM
CCC(C)C(NC(=O)C(CC(C)C)NC(=O)OCc1ccccc1)C(=O)C(=O)NCC(=O)NC(Cc1ccccc1)C(N)=O (stereo not shown) [PHELIX318, benzyl (1-((1-((2-((1-amino-1-oxo-3-phenylpropan-2-yl)amino)-2-oxoethyl)amino)-4-methyl-1,2-dioxohexan-3-yl)amino)-4-methyl-1-oxopentan-2-yl)carbamate]	0.00382 µM	0.00163 µM
CCC(C)C(NC(=O)C(CCC(N)=O)NC(=O)Cc1ccccc1)C(=O)C(=O)NCC(=O)NC(Cc1ccc2ccccc2c1)C(N)=O (stereo not shown) [PHELIX320, N^1-(1-((2-((1-amino-3-(naphthalen-2-yl)-1-oxopropan-2-yl)amino)-2-oxoethyl)amino)-4-methyl-1,2-dioxohexan-3-yl)-2-(2-phenylacetamido)pentanediamide]	0.495 µM	0.0386 µM
CCC(C)C(NC(=O)C(Cc1ccccc1)NC(=O)Cc1ccccc1)C(=O)C(=O)NCC(=O)NC(Cc1ccc2ccccc2c1)C(N)=O (stereo not shown) [PHELIX321, N-(2-((1-amino-3-(naphthalen-2-yl)-1-oxopropan-2-yl)amino)-2-oxoethyl)-4-methyl-2-oxo-3-(3-phenyl-2-(2-phenylacetamido)propanamido)hexanamide]	< 0.0001 µM	0.0839 µM
CCC(C)C(NC(=O)C(CC(N)=O)NC(=O)Cc1ccccc1)C(=O)C(=O)NCC(=O)NC(Cc1ccc2ccccc2c1)C(N)=O (stereo not shown) [PHELIX322, N^1-(1-((2-((1-amino-3-(naphthalen-2-yl)-1-oxopropan-2-yl)amino)-2-oxoethyl)amino)-4-methyl-1,2-dioxohexan-3-yl)-2-(2-phenylacetamido)succinamide]	0.101 µM	0.071 µM
CCC(C)C(NC(=O)C(NC(=O)Cc1ccccc1)C(C)(C)C)C(=O)C(=O)NCC(=O)NC(Cc1ccc2ccccc2c1)C(N)=O (stereo not shown) [PHELIX323, N-(2-((1-amino-3-(naphthalen-2-yl)-1-oxopropan-2-yl)amino)-2-oxoethyl)-3-(3,3-dimethyl-2-(2-phenylacetamido)butanamido)-4-methyl-2-oxohexanamide]	0.273 µM	2.37 ± 1.05 µM
CCC(C)C(NC(=O)C(CC(C)C)NC(=O)Cc1ccccn1)C(=O)C(=O)NCC(=O)NC(Cc1ccc2ccccc2c1)C(N)=O (stereo not shown) [PHELIX324, N-(2-((1-amino-3-(naphthalen-2-yl)-1-oxopropan-2-yl)amino)-2-oxoethyl)-4-methyl-3-(4-methyl-2-(2-(pyridin-2-yl)acetamido)pentanamido)-2-oxohexanamide]	0.00132 µM	0.00815 µM
CCC(C)C(NC(=O)OCc1ccccc1)C(=O)C(=O)NCC(=O)NC(Cc1ccc2ccccc2c1)C(N)=O (stereo not shown) [PHELIX325, benzyl (1-((2-((1-amino-3-(naphthalen-2-yl)-1-oxopropan-2-yl)amino)-2-oxoethyl)amino)-4-methyl-1,2-dioxohexan-3-yl)carbamate]	0.239 µM	1.21 µM
CCC(C)C(NC(=O)C(CC(C)C)NC(=O)OCc1ccccc1)C(=O)C(=O)NC(CC(N)=O)Cc1ccccc1 (stereo not shown) [PHELIX326, benzyl (1-((1-((4-amino-4-oxo-1-phenylbutan-2-yl)amino)-4-methyl-1,2-dioxohexan-3-yl)amino)-4-methyl-1-oxopentan-2-yl)carbamate]	0.0602 µM	0.702 µM
CCC(C)C(NC(=O)C(CC(C)C)NC(=O)OCc1ccccc1)C(=O)C(=O)NCC(=O)NC(Cc1cc2ccccc2[nH]1)C(N)=O (stereo not shown) [PHELIX327, benzyl (1-((1-((2-((1-amino-3-(1H-indol-2-yl)-1-oxopropan-2-yl)amino)-2-oxoethyl)amino)-4-methyl-1,2-dioxohexan-3-yl)amino)-4-methyl-1-oxopentan-2-yl)carbamate]	0.00933 µM	0.00998 µM
CCC(C)C(NC(=O)C(CC(C)C)NC(=O)OCc1ccccc1)C(=O)C(=O)NC(Cc1cnc[nH]1)C(=O)NC(Cc1ccc2ccccc2c1)C(N)=O (stereo not shown) [PHELIX328, benzyl (1-((1-((1-((1-amino-3-(naphthalen-2-yl)-1-oxopropan-2-yl)amino)-3-(1H-imidazol-5-yl)-1-oxopropan-2-yl)amino)-4-methyl-1,2-dioxohexan-3-yl)amino)-4-methyl-1-oxopentan-2-yl)carbamate]	0.00252 µM	0.0351 µM
CCC(C)C(NC(=O)C(CC(C)C)NC(=O)OCc1ccccc1)C(=O)C(=O)NC(CCCNC(=N)N)C(=O)NC(Cc1ccc2ccccc2c1)C(N)=O (stereo not shown) [PHELIX329, benzyl (1-((1-((1-((1-amino-3-(naphthalen-2-yl)-1-oxopropan-2-yl)amino)-5-guanidino-1-oxopentan-2-yl)amino)-4-methyl-1,2-dioxohexan-3-yl)amino)-4-methyl-1-oxopentan-2-yl)carbamate]	0.00267 µM	0.111 µM
CCC(C)C(NC(=O)C(CC(C)C)NC(=O)OCc1ccccc1)C(=O)C(=O)NC(CCCNC(=N)N)C(=O)NC(Cc1ccc2ccccc2c1)C(N)=O (stereo not shown) [PHELIX330, benzyl (1-((1-((1-((1-amino-3-(naphthalen-2-yl)-1-oxopropan-2-yl)amino)-5-guanidino-1-oxopentan-2-yl)amino)-4-methyl-1,2-dioxohexan-3-yl)amino)-4-methyl-1-oxopentan-2-yl)carbamate]	0.00291 µM	0.0214 µM
CCC(C)C(NC(=O)C(CC(C)(C)C)NC(=O)Cc1ccccc1)C(=O)C(=O)NCC(=O)NC(Cc1ccc2ccccc2c1)C(N)=O (stereo not shown) [PHELIX331, N-(2-((1-amino-3-(naphthalen-2-yl)-1-oxopropan-2-yl)amino)-2-oxoethyl)-3-(4,4-dimethyl-2-(2-phenylacetamido)pentanamido)-4-methyl-2-oxohexanamide]	0.00167 µM	0.00926 µM
CCC(C)C(NC(=O)C(CC1CC1)NC(=O)Cc1ccccc1)C(=O)C(=O)NCC(=O)NC(Cc1ccc2ccccc2c1)C(N)=O (stereo not shown) [PHELIX332, N-(2-((1-amino-3-(naphthalen-2-yl)-1-oxopropan-2-yl)amino)-2-oxoethyl)-3-(3-cyclopropyl-2-(2-phenylacetamido)propanamido)-4-methyl-2-oxohexanamide]	0.00115 µM	0.00237 µM
